Reference: BigSolDB 2.1

Work on `Brc1cnc2[nH]ccc2c1` yielded a solubility (mole fraction) (in acetonitrile, 278.15 K) of 0.00224, a solubility (mole fraction) (in acetonitrile, 283.15 K) of 0.00304 and a solubility (mole fraction) (in acetonitrile, 288.15 K) of 0.00366. For the same molecule, the solubility (mole fraction) (in acetonitrile, 293.15 K) was 0.00436, the solubility (mole fraction) (in acetonitrile, 298.15 K) was 0.00519 and the solubility (mole fraction) (in acetonitrile, 303.15 K) was 0.00616. The solubility (mole fraction) (in acetonitrile, 308.15 K) was 0.00726, the solubility (mole fraction) (in acetonitrile, 313.15 K) was 0.00858 and the solubility (mole fraction) (in acetonitrile, 318.15 K) was 0.00981. It also gave a solubility (mole fraction) (in acetonitrile, 323.15 K) of 0.0116, a solubility (mole fraction) (in dichloromethane, 278.15 K) of 0.00083 and a solubility (mole fraction) (in dichloromethane, 283.15 K) of 0.00133. It also gave a solubility (mole fraction) (in dichloromethane, 288.15 K) of 0.00216, a solubility (mole fraction) (in dichloromethane, 293.15 K) of 0.00333 and a solubility (mole fraction) (in dichloromethane, 298.15 K) of 0.00505. For the same molecule, the solubility (mole fraction) (in dichloromethane, 303.15 K) was 0.00749, the solubility (mole fraction) (in dichloromethane, 308.15 K) was 0.0106 and the solubility (mole fraction) (in dichloromethane, 313.15 K) was 0.0148. The solubility (mole fraction) (in ethanol, 278.15 K) was 0.0078, the solubility (mole fraction) (in ethanol, 283.15 K) was 0.00958 and the solubility (mole fraction) (in ethanol, 288.15 K) was 0.0106. For the same molecule, the solubility (mole fraction) (in ethanol, 293.15 K) was 0.0125, the solubility (mole fraction) (in ethanol, 298.15 K) was 0.0139 and the solubility (mole fraction) (in ethanol, 303.15 K) was 0.0158. It also gave a solubility (mole fraction) (in ethanol, 308.15 K) of 0.0177, a solubility (mole fraction) (in ethanol, 313.15 K) of 0.0198 and a solubility (mole fraction) (in ethanol, 318.15 K) of 0.0222. It also gave a solubility (mole fraction) (in ethanol, 323.15 K) of 0.0245, a solubility (mole fraction) (in ethyl acetate, 278.15 K) of 0.0161 and a solubility (mole fraction) (in ethyl acetate, 283.15 K) of 0.0184. The solubility (mole fraction) (in ethyl acetate, 288.15 K) was 0.02, the solubility (mole fraction) (in ethyl acetate, 293.15 K) was 0.0225 and the solubility (mole fraction) (in ethyl acetate, 298.15 K) was 0.0258. It also gave a solubility (mole fraction) (in ethyl acetate, 303.15 K) of 0.0286, a solubility (mole fraction) (in ethyl acetate, 308.15 K) of 0.0321 and a solubility (mole fraction) (in ethyl acetate, 313.15 K) of 0.0363. The solubility (mole fraction) (in ethyl acetate, 318.15 K) was 0.0404, the solubility (mole fraction) (in ethyl acetate, 323.15 K) was 0.045 and the solubility (mole fraction) (in isopropanol, 278.15 K) was 0.00779. It also gave a solubility (mole fraction) (in isopropanol, 283.15 K) of 0.00915, a solubility (mole fraction) (in isopropanol, 288.15 K) of 0.0106 and a solubility (mole fraction) (in isopropanol, 293.15 K) of 0.0123. For the same molecule, the solubility (mole fraction) (in isopropanol, 298.15 K) was 0.0143, the solubility (mole fraction) (in isopropanol, 303.15 K) was 0.0165 and the solubility (mole fraction) (in isopropanol, 308.15 K) was 0.019. It also gave a solubility (mole fraction) (in isopropanol, 313.15 K) of 0.0217, a solubility (mole fraction) (in isopropanol, 318.15 K) of 0.0252 and a solubility (mole fraction) (in isopropanol, 323.15 K) of 0.0275. It also gave a solubility (mole fraction) (in methanol, 278.15 K) of 0.00595, a solubility (mole fraction) (in methanol, 283.15 K) of 0.00673 and a solubility (mole fraction) (in methanol, 288.15 K) of 0.00779. For the same molecule, the solubility (mole fraction) (in methanol, 293.15 K) was 0.00882, the solubility (mole fraction) (in methanol, 298.15 K) was 0.00972 and the solubility (mole fraction) (in methanol, 303.15 K) was 0.0111. The solubility (mole fraction) (in methanol, 308.15 K) was 0.0124, the solubility (mole fraction) (in methanol, 313.15 K) was 0.0138 and the solubility (mole fraction) (in methanol, 318.15 K) was 0.0153. It also gave a solubility (mole fraction) (in methanol, 323.15 K) of 0.0171, a solubility (mole fraction) (in methyl acetate, 278.15 K) of 0.0222 and a solubility (mole fraction) (in methyl acetate, 283.15 K) of 0.0253. For the same molecule, the solubility (mole fraction) (in methyl acetate, 288.15 K) was 0.0279, the solubility (mole fraction) (in methyl acetate, 293.15 K) was 0.0312 and the solubility (mole fraction) (in methyl acetate, 298.15 K) was 0.0347. For the same molecule, the solubility (mole fraction) (in methyl acetate, 303.15 K) was 0.0381, the solubility (mole fraction) (in methyl acetate, 308.15 K) was 0.0419 and the solubility (mole fraction) (in methyl acetate, 313.15 K) was 0.0459. For the same molecule, the solubility (mole fraction) (in methyl acetate, 318.15 K) was 0.0509, the solubility (mole fraction) (in methyl acetate, 323.15 K) was 0.0549 and the solubility (mole fraction) (in n-butanol, 278.15 K) was 0.0154. It also gave a solubility (mole fraction) (in n-butanol, 283.15 K) of 0.0177, a solubility (mole fraction) (in n-butanol, 288.15 K) of 0.0202 and a solubility (mole fraction) (in n-butanol, 293.15 K) of 0.0228. The solubility (mole fraction) (in n-butanol, 298.15 K) was 0.0251, the solubility (mole fraction) (in n-butanol, 303.15 K) was 0.0278 and the solubility (mole fraction) (in n-butanol, 308.15 K) was 0.0312. For the same molecule, the solubility (mole fraction) (in n-butanol, 313.15 K) was 0.0345, the solubility (mole fraction) (in n-butanol, 318.15 K) was 0.0377 and the solubility (mole fraction) (in n-butanol, 323.15 K) was 0.0415. It also gave a solubility (mole fraction) (in n-hexane, 278.15 K) of 0.00015, a solubility (mole fraction) (in n-hexane, 283.15 K) of 0.00017 and a solubility (mole fraction) (in n-hexane, 288.15 K) of 0.00019. It also gave a solubility (mole fraction) (in n-hexane, 293.15 K) of 0.00021, a solubility (mole fraction) (in n-hexane, 298.15 K) of 0.00024 and a solubility (mole fraction) (in n-hexane, 303.15 K) of 0.00027. For the same molecule, the solubility (mole fraction) (in n-hexane, 308.15 K) was 0.0003, the solubility (mole fraction) (in n-hexane, 313.15 K) was 0.00034 and the solubility (mole fraction) (in n-hexane, 318.15 K) was 0.00036. It also gave a solubility (mole fraction) (in n-hexane, 323.15 K) of 0.00041, a solubility (mole fraction) (in n-propanol, 278.15 K) of 0.00916 and a solubility (mole fraction) (in n-propanol, 283.15 K) of 0.0109. The solubility (mole fraction) (in n-propanol, 288.15 K) was 0.0123, the solubility (mole fraction) (in n-propanol, 293.15 K) was 0.0145 and the solubility (mole fraction) (in n-propanol, 298.15 K) was 0.0165. It also gave a solubility (mole fraction) (in n-propanol, 303.15 K) of 0.0188, a solubility (mole fraction) (in n-propanol, 308.15 K) of 0.0209 and a solubility (mole fraction) (in n-propanol, 313.15 K) of 0.0237. The solubility (mole fraction) (in n-propanol, 318.15 K) was 0.0268 and the solubility (mole fraction) (in n-propanol, 323.15 K) was 0.0298.
